From patent US20010049373A1, “Materials and methods for killing nematodes and nematode eggs” (priority 2000, published 2001)
Values joined by “and” are separate entries in the source; they are usually repeats but may differ in a detail not shown here. Equal values may be shown once.

Legend:
[1] = test system: gastrointestinal nematodes (trichostrongyle, Strongyloides, Trichuris, Nematodirus eggs); assay: Sheep Test II: fecal egg per gram (EPG) counts; type: in vivo; conditions: for % Change, Strongyles EPG-5 day vs EPG-pre, Total/Mean / Strongyles EPG-5 day (22-May), Total/Mean / % Change, Strongyles EPG-7 day vs EPG-pre, Total/Mean / Strongyles EPG-7 day (24-May), Total/Mean: group mean; for % Change, Strongyles EPG-5 day vs EPG-pre, Total/Mean / Strongyles EPG-5 day (22-May), Total/Mean / Strongyles EPG-5 day (22-May): 5 days after treatment; for % Change, Strongyles EPG-7 day vs EPG-pre, Total/Mean / Strongyles EPG-7 day (24-May), Total/Mean / % Change, Strongyles EPG-7 day vs EPG-pre / Strongyles EPG-7 day (24-May): 7 days after treatment; for Strongyles EPG-5 day (22-May) / % Change, Strongyles EPG-7 day vs EPG-pre / Strongyles EPG-7 day (24-May): individual sheep
Protocol: Sheep naturally infected with a variety of gastrointestinal nematodes are purchased from local sources and are transported to the test site. The animals are housed in a manner to preclude further infection by nematode larvae. The animals are evaluated for the presence of adequate nematode burdens by performing a standard fecal egg per gram (EPG) count. Eggs are differentiated into the following groups: trichostrongyle (strongyle), Strongyloides, Trichuris, or Nematodiris. Only sheep judged by the study parasitologist to have adequate nematode infections are retained as test subjects.
The sheep are fed good quality hay (no concentrated rations) and water ad libitum. Following a five day acclimation period, the sheep are randomly assigned by EPG count into the following treatment groups: Groups 1-9, various anthelmintic compounds of the present invention (test compound) dissolved in DMSO: Group 10, Positive Control (commercially available ivermectin for sheep); Group 11, non-treated Negative control (DMSO only). The first replicate of 1 I animals is randomly assigned to groups 1-1; the second replicate of 11 animals is randomly assigned to groups 1-11; and the third replicate of 11 animals is randomly assigned to groups 1-1. Thus 11 groups of 3 animals each are created.
The randomization is performed on fecal samples collected 24-48 hours prior to scheduled treatment. The EPG counts are performed according to Zimmerman Research SOP # NMEPG.99.01.
The placebo (DMSO), the commercially available drug, and the test anthelmintic compounds are administered in a 3 ml volume of DMSO by subcutaneous injection using a sterile syringe fitted with a sterile needle. The site of injection is clipped and swabbed with alcohol prior to injection. The animal is adequately immobilized for injection of the placebo, commercially available drug, or experimental compound.
Following treatment, the animals are observed at hourly intervals for the first 8 hours, then daily until necropsy. They are housed in a manner to prevent further nematode infections.
On the fifth day following treatment, fecal samples are obtained from each animal, properly labeled and used for EPG counts.
Seven days following treatment, all the sheep are weighed and humanely slaughtered in accordance with the Guide for the Care and Use of Laboratory Animals (DHEW Publication No. 86-23). Necropsy procedures are according to Zimmerman Research SOP # NCRGIH.00.01, Necropsy for Helminth Recovery, specifically for gastrointestinal nematodes. Fecal samples are taken for EPG counts during the sample collection process on this day.

[2] = test system: gastrointestinal nematodes; assay: Sheep Test I: nematode recovery at necropsy, controlled anthelmintic test efficacy; type: in vivo; conditions: for Mean Ct, Abomasum Haemonchus / Mean Ct, Abomasum ostertagia / Mean Ct, Small Intest. Nematodirus / Mean Ct, Small Intestine Trichostrongylus: group mean; for Mean Ct, Abomasum Haemonchus / Mean Ct, Abomasum ostertagia / Mean Ct, Small Intest. Nematodirus / Mean Ct, Small Intestine Trichostrongylus / Worm Counts, Abomasum Haemonchus / Worm Counts, Abomasum ostertagia / Worm Counts, Small Intest. Nematodirus / Worm Counts, Small Intestine Trichostrongylus: necropsy seven days following treatment; for Worm Counts, Abomasum Haemonchus / Worm Counts, Abomasum ostertagia / Worm Counts, Small Intest. Nematodirus / Worm Counts, Small Intestine Trichostrongylus: individual sheep
Protocol: Sheep naturally infected with a variety of gastrointestinal nematodes are purchased from local sources and are transported to the test site. The animals are housed in a manner to preclude further infection by nematode larvae. The animals are evaluated for the presence of adequate nematode burdens by performing a standard fecal egg per gram (EPG) count. Eggs are differentiated into the following groups: trichostrongyle (strongyle), Strongyloides, Trichuris, or Nematodinis. Only sheep judged by the study parasitologist to have adequate nematode infections are retained as test subjects. The sheep are fed good quality hay (no concentrated rations) and water ad libitum. Following a five-day acclimation period, the sheep are randomly assigned by EPG count into treatment groups which include non-treated Negative control (placebo); […] The first replicate of 10 animals is randomly assigned to groups 1-10; the second replicate of 10 animals is randomly assigned to groups 1-10; and the third replicate of 10 animals is randomly assigned to groups 1-10. Thus 10 groups of 3 animals each is created. The placebo (DMSO), the commercially available drug, and the test anthelmintic compounds are administered in a 3 ml volume by subcutaneous injection using a sterile syringe fitted with a proper needle. The animal is adequately immobilized for injection of the placebo, commercially available drug, or test anthelmintic compound. Seven days following treatment the sheep are humanely slaughtered in accordance with the Guide for the Care and Use of Laboratory Animals (DHEW Publication No. 86-23). Necropsy procedures are according to Zimmerman Research SOP # […].99.01, Necropsy for Helminth Recovery, specifically for gastrointestinal nematodes. Fecal samples are taken for EPG counts during the sample collection process on this day. All animals are necropsied, but only the animals from the experimental treatment groups that have a significant egg count reduction on day 5 or day 7 will have intestinal material collected for nematode recovery and identification. Nematodes are recovered, identified, and enumerated according to Zimmerman Research SOP # […].99.01. All individuals performing nematode recoveries are blinded to treatment versus control animals. Preliminary estimates of total nematodes recovered from each gut sample are provided prior to identification and enumerations by the study parasitologist. At the discretion of the study parasitologist, seven days after the drug administration fecal egg counts are performed and all animals showing 90% or better trichostrongylid egg reduction will be slaughtered using humane methods recommended by the AVMA. The neck blood vessels are severed and after the animal is completely exsanguinated, the abdomen are opened. The abomasum, the small and large intestines are tied at the omasal and pyloric openings, the duodenum, the end of the small intestine and at the end of the large intestine. Each section is transferred in a separate bucket containing warm water and is slit open and thoroughly washed. The epithelium is inspected before it is removed. The thus prepared washings are saved in gallon jars. An appropriate preservative is added. If preservative is not available, all the intestinal washing should kept in a refrigerator. These washings are passed through a 100-mesh sieve (pore size […]), and the residue is examined for the presence of worms under a dissecting microscope, Lugol's solution may be used to stain the worms. All worms are picked up counted and identified as to the species. An effort should be made to recover any immature forms present.

[3] = Ivermectin 200 mcg/kg, vs negative control mean count
[4] = AKC 109 1.4 mg/kg, vs negative control mean count

Compound: 22,23-dihydroavermectin B1 [ivermectin]
- % Change, Strongyles EPG-5 day vs EPG-pre, Total/Mean ([1]; Ivermectin 200 mcg/kg): 100.00%
- Strongyles EPG-5 day (22-May), Total/Mean ([1]; Ivermectin 200 mcg/kg): 0.00 EPG
- % Change, Strongyles EPG-7 day vs EPG-pre, Total/Mean ([1]; Ivermectin 200 mcg/kg): 100.00%
- Strongyles EPG-7 day (24-May), Total/Mean ([1]; Ivermectin 200 mcg/kg): 0.00 EPG
- Strongyles EPG-5 day (22-May) ([1]; Ivermectin 200 mcg/kg): 0 EPG
- % Change, Strongyles EPG-7 day vs EPG-pre ([1]; Ivermectin 200 mcg/kg): 100.00%
- Strongyles EPG-7 day (24-May) ([1]; Ivermectin 200 mcg/kg): 0 EPG
- % Efficacy, Abomasum Haemonchus [2, 3]: 100%
- % Efficacy, Abomasum ostertagia [2, 3]: 100%
- % Efficacy, Small Intest. Nematodirus [2, 3]: 100%
- % Efficacy, Small Intestine Trichostrongylus [2, 3]: 100%
- Mean Ct, Abomasum Haemonchus ([2]; Ivermectin 200 mcg/kg): 0
- Mean Ct, Abomasum ostertagia ([2]; Ivermectin 200 mcg/kg): 0
- Mean Ct, Small Intest. Nematodirus ([2]; Ivermectin 200 mcg/kg): 0
- Mean Ct, Small Intestine Trichostrongylus ([2]; Ivermectin 200 mcg/kg): 0
- Worm Counts, Abomasum Haemonchus ([2]; Ivermectin 200 mcg/kg): 0
- Worm Counts, Abomasum ostertagia ([2]; Ivermectin 200 mcg/kg): 0
- Worm Counts, Small Intest. Nematodirus ([2]; Ivermectin 200 mcg/kg): 0
- Worm Counts, Small Intestine Trichostrongylus ([2]; Ivermectin 200 mcg/kg): 0

Compound: CCC1CCCCN1c1cc(Oc2ccc3oc4ccccc4c3c2)ncn1 (stereo not drawn) [AKC 109]
- % Change, Strongyles EPG-5 day vs EPG-pre, Total/Mean ([1]; AKC 109 .8 mg/kg): 51.49%
- Strongyles EPG-5 day (22-May), Total/Mean ([1]; AKC 109 .8 mg/kg): 245.00 EPG
- % Change, Strongyles EPG-7 day vs EPG-pre, Total/Mean ([1]; AKC 109 .8 mg/kg): 50.50%
- Strongyles EPG-7 day (24-May), Total/Mean ([1]; AKC 109 .8 mg/kg): 250.00 EPG
- Strongyles EPG-5 day (22-May) ([1]; AKC 109 .8 mg/kg): 360 EPG and 130 EPG
- % Change, Strongyles EPG-7 day vs EPG-pre ([1]; AKC 109 .8 mg/kg): 63.93% and 30.00%
- Strongyles EPG-7 day (24-May) ([1]; AKC 109 .8 mg/kg): 220 EPG and 280 EPG
- % Efficacy, Abomasum ostertagia [2, 4]: 98%
- % Efficacy, Small Intest. Nematodirus [2, 4]: 57%
- Mean Ct, Abomasum Haemonchus ([2]; AKC 109 1.4 mg/kg): 507
- Mean Ct, Abomasum ostertagia ([2]; AKC 109 1.4 mg/kg): 7
- Mean Ct, Small Intest. Nematodirus ([2]; AKC 109 1.4 mg/kg): 353
- Mean Ct, Small Intestine Trichostrongylus ([2]; AKC 109 1.4 mg/kg): 233
- Worm Counts, Abomasum Haemonchus ([2]; AKC 109 1.4 mg/kg, 1.4 mg/kg): 20 and 1500 and 0
- Worm Counts, Abomasum ostertagia ([2]; AKC 109 1.4 mg/kg, 1.4 mg/kg): 20 and 0 (2×)
- Worm Counts, Small Intest. Nematodirus ([2]; AKC 109 1.4 mg/kg, 1.4 mg/kg): 100 and 500 and 460
- Worm Counts, Small Intestine Trichostrongylus ([2]; AKC 109 1.4 mg/kg, 1.4 mg/kg): 540 and 160 and 0
